Read-outs that look alike come from different tables or passages of the source.
Key:
[1] = target: T1, Human FXR full length (Homo sapiens, UniProt Q96RI1); experiment: FXR activity screen, luciferase reporter in transfected CV-1 cells; type: cell-based
T1 construct: Human FXR full length and RXR full length was obtained from Ronald Evans' laboratory; expressed in transfected cells; host or cells: CV-1 cells
T1 sequence (Q96RI1 1-476 isoform Q96RI1-1): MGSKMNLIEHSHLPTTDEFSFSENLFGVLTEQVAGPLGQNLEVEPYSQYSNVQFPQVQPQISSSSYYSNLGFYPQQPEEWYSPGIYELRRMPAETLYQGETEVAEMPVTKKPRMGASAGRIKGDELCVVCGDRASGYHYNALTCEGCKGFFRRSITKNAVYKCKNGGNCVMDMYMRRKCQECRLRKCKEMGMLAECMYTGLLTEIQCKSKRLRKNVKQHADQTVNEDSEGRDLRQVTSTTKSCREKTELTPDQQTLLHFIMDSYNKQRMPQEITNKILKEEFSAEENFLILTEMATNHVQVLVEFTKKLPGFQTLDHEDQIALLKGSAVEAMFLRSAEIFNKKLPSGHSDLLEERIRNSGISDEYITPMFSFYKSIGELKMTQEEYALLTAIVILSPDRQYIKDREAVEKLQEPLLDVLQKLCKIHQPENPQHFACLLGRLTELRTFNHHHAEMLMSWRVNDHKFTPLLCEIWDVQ
T1 sequence (P19793 1-462 partner): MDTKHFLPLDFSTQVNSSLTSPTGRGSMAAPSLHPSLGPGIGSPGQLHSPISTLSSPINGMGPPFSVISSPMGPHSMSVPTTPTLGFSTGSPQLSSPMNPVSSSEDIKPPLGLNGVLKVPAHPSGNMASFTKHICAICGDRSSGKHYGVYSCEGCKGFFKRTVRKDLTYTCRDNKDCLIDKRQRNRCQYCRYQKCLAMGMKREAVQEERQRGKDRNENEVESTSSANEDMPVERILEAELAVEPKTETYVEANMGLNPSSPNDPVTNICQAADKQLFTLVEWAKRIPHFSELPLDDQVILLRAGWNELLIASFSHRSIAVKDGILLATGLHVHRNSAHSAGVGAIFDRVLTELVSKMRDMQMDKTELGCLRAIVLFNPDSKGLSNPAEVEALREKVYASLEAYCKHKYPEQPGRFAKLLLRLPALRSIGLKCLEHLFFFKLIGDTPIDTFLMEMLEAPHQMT
Experimental: CV-1 cells were grown in DMEM+10% charcoal stripped FCS. Cells were seeded into 384-well plates the day before transfection to give a confluency of 50-80% at transfection. A total of […] DNA containing 0.32 micrograms pCMX-hFXRfl, 0.32 micrograms pCMX-hRXRfl, 0.1 micrograms pCMXβGal, 0.08 micrograms pGLFXRE reporter and 0.02 micrograms pCMX empty vector was transfected per well using FuGene transfection reagent according to the manufacturer's instructions (Roche). Cells were allowed to express protein for 48 hours followed by addition of compound.
Human FXR full length and RXR full length was obtained from Ronald Evans' laboratory and PCR amplification of the hFXR cDNA and the hRXR cDNA was performed. The amplified cDNAs was cloned into the vector pCMX generating the plasmids pCMX-hFXRfl and pCMX-hRXRfl. Ensuing fusions were verified by sequencing. The pCMXMH2004 luciferase reporter contains multiple copies of the GAL4 DNA response element under a minimal eukaryotic promoter (Hollenberg and Evans, 1988). pCMXβGal was generated in the Evans laboratory, Salk Institute.
All compounds were dissolved in DMSO and diluted 1:1000 upon addition to the cells. Compounds were tested in quadruple in concentrations ranging from 0.001 to 100 μM. Cells were treated with compound for 24 hours followed by luciferase assay. Each compound was tested in at least two separate experiments.
Medium including test compound was aspirated and washed with PBS. 50 μL PBS including 1 mM Mg^2+ and Ca^2+ were then added to each well. The luciferase assay was performed using the LucLite kit according to the manufacturer's instructions (Packard Instruments). Light emission was quantified by counting on a Perkin Elmer Envision reader. To measure […] activity 25 μL supernatant from each transfection lysate was transferred to a new 384 microplate. Beta-galactosidase assays were performed in the microwell plates using a kit from Promega and read in a Perkin Elmer Envision reader. The beta-galactosidase data were used to normalize (transfection efficiency, cell growth etc.) the luciferase data.
The activity of a compound is calculated as fold induction compared to an untreated sample. For each compound the efficacy (maximal activity) is given as a relative activity compared to Fexaramine, a FXR agonist. The EC50 is the concentration giving 50% of maximal observed activity. EC50 values were calculated via non-linear regression using GraphPad PRISM (GraphPad Software, San Diego, Calif.).

[2] = test system: ob/ob mice; experiment: fexaramine and deuterated analogs in ob/ob mice, 2 weeks; type: in vivo; details: 2 weeks at 50 mg/kg PO
Experimental: An in vivo study of fexaramine and selectively-deuterated fexaramine compounds (FIG. 29A) was performed. Briefly, ob/ob mice were treated daily with vehicle, Fex, or deuterated analogs (50 mg kg^−1) by oral (PO) gavage for 2 weeks. Subsequently, body weight, body temperature, fasting blood glucose and insulin levels, insulin secretion, and GLP1 section were measured, and glucose tolerance tests (GTTs) performed.

[3] = test system: FXR target gene expression in the liver; experiment: liver gene expression by QPCR after 14 days oral FEX-D or SALK110; type: in vivo, Mice; details: 50 mg/kg PO 14 days
Experimental: Mice were treated daily with vehicle, FEX-D, or SALK110 (NSSK00110, 50 mg kg^−1) (see FIG. 29A) by oral (PO) gavage for 14 days, with tissues collected 1 hour after the final treatment. Gene expression changes in the liver were measured by QPCR.

[4] = test system: human L cells; experiment: oxygen consumption rate of intestinal L cells (Seahorse analyzer); type: cell-based; details: fexaramine 1 μM for 24 hours
Experimental: FIG. 41 is a graph showing the effects of modulating FXR activity on the oxidative metabolism of intestinal L cells. L cells were treated with the FXR agonist fexaramine, the FXR antagonist Guggulsterone, or a combination of both, prior to measurement of their oxygen consumption rate (OCR) in a Seahorse analyzer.
To examine the effects of FXR in the secretion of GLP-1, the metabolic changes induced in human L cells was measured by treatment with the FXR agonist, fexaramine and an FXR antagonist guggulsterone. Treatment of L cells with fexaramine (1 μM for 24 hours) lead to an increase in the oxygen consumption rate (OCR), consistent with increased mitochondrial activity and consequently, an increased energetic state (FIG. 41). The reverse effect was seen after treatment with the FXR antagonist, guggulsterone, with lower OCR after drug treatment.

[5] = first round, CV-1 cells, 24 hours, read-out: 1st RND EC50
[6] = second round, CV-1 cells, 24 hours, read-out: 2nd RND EC50

Structure (SMILES) | EC50 [1, 5] | EC50 [1, 6] | further results
[2H]C(c1ccc(-c2ccc(N(C)C)cc2)cc1)N(C(=O)C1CCCCC1)c1cccc(/C=C/C(=O)OC)c1 (stereo not shown) [NSSK00077, methyl (E)-3-(3-(N-((4′-(dimethylamino)-[1,1′-biphenyl]-4-yl)methyl-d)cyclohexanecarboxamido)phenyl)acrylate] | 177 nM | 150 nM | EC50 ([1]; retest, read-out: EC50 (retested)): 98 nM; core body temperature [2]: more effective at increasing core body temperature than Fex; fasting blood glucose levels [2]: significantly reduced; expression of FXR target genes SHP and BSEP in the liver [3]: fail to alter
C/C=C1\C(=O)C[C@H]2[C@@H]3CCC4=CC(=O)CC[C@]4(C)[C@H]3CC[C@]12C [guggulsterone] |  |  | oxygen consumption rate (OCR) [4]: lower OCR
[2H]C(c1ccc(-c2ccc(N(C)C)cc2)cc1F)N(C(=O)[C@@H]1C[C@@H]2CC[C@H]1C2)c1cncc(/C=C/C(=O)OC)c1 (stereo partly shown) [NSSK00029] | 605 nM | 510 nM | 
[2H]C(c1ccc(-c2ccc(N(C)C)cc2)cc1Cl)N(C(=O)c1ccccc1)c1cncc(/C=C/C(=O)OC)c1 (stereo not shown) [NSSK00065] | 3300 nM | 6000 nM | 
[2H]C(c1ccc(-c2ccc3c(cnn3C)c2)cc1Cl)N(C(=O)C1CCCCC1)c1cccc(/C=C/C(=O)OC)c1 (stereo not shown) [NSSK00014] | 346 nM | 475 nM | 
COC(=O)/C=C/c1cncc(N(Cc2ccc(-c3ccc(N(C)C)cc3)cc2Cl)C(=O)c2ccccc2)c1 [NSSK00081] | 22800 nM | 71000 nM | 
COC(=O)/C=C/c1cccc(N(Cc2cccc3cc4cnn(C)c4c(F)c23)C(=O)C2CCCCC2)c1 [NSSK00006] | 273 nM | 243 nM | 
COC(=O)/C=C/c1cccc(N(Cc2ccc(-c3ccc4c(cnn4C)c3)cc2)C(=O)c2ccccc2)c1 [NSSK00056] | 752 nM | 720 nM | 
COC(=O)/C=C/c1cccc(N(Cc2ccc(-c3ccc4c(cnn4C)c3)cc2Cl)C(=O)C2CCN(C)CC2)c1 [NSSK00075] | 155000 nM | 653000 nM | 
COC(=O)/C=C/c1cccc(N(Cc2ccc(-c3ccc4c(cnn4C)c3)cc2Cl)C(=O)C2CCCCC2)c1 [NSSK00091] | 801 nM | 628 nM | 
[2H]C(c1ccc(-c2ccc(N(C)C)cc2)cc1)N(C(=O)C1CCCCC1)c1cc(F)cc(/C=C/C(=O)OC)c1 (stereo not shown) [NSSK00025] | 150 nM | 168 nM | 
COC(=O)/C=C/c1cncc(N(Cc2ccc(-c3ccc4c(cnn4C)c3)cc2F)C(=O)c2ccccc2)c1 [NSSK00061] | 9600 nM | 10200 nM | 
[2H]C(c1ccc(-c2ccc3c(cnn3C)c2)cc1F)N(C(=O)c1ccccc1)c1cc(F)cc(/C=C/C(=O)OC)c1 (stereo not shown) [NSSK00039] | 1550 nM | 870 nM | 
[2H]C(c1ccc(-c2ccc3c(cnn3C)c2)cc1Cl)N(C(=O)C1CCCCC1)c1cncc(/C=C/C(=O)OC)c1 (stereo not shown) [NSSK00095] | 1400 nM | 1500 nM | 
COC(=O)/C=C/c1cncc(N(Cc2ccc(-c3ccc(N(C)C)cc3)cc2F)C(=O)[C@@H]2C[C@@H]3CC[C@H]2C3)c1 [NSSK00115] |  | 2000 nM | 
[2H]C(c1ccc(-c2ccc3c(cnn3C)c2)cc1Cl)N(C(=O)c1ccccc1)c1cc(F)cc(/C=C/C(=O)OC)c1 (stereo not shown) [NSSK00041] | 1100 nM | 1200 nM | 
[2H]C(c1ccc(-c2ccc3c(cnn3C)c2)cc1Cl)N(C(=O)[C@@H]1C[C@@H]2CC[C@H]1C2)c1cccc(/C=C/C(=O)OC)c1 (stereo partly shown) [NSSK00013] | 390 nM | 430 nM | 
COC(=O)/C=C/c1cc(F)cc(N(Cc2ccc(-c3ccc4c(cnn4C)c3)cc2F)C(=O)c2ccccc2)c1 [NSSK00099] | 2100 nM | 2100 nM | 
COC(=O)/C=C/c1cncc(N(Cc2ccc(-c3ccc4c(cnn4C)c3)cc2)C(=O)c2ccccc2)c1 [NSSK00118] | 7000 nM | 55000 nM | 
[2H]C(c1ccc(-c2ccc(N(C)C)cc2)cc1Cl)N(C(=O)[C@@H]1C[C@@H]2CC[C@H]1C2)c1cncc(/C=C/C(=O)OC)c1 (stereo partly shown) [NSSK00064] | 4600 nM | 3300 nM | 
COC(=O)/C=C/c1cncc(N(Cc2ccc(-c3ccc(N(C)C)cc3)cc2)C(=O)c2ccccc2)c1 [NSSK00060] | 8500 nM | 11200 nM | 
COC(=O)/C=C/c1cncc(N(Cc2cccc3cc4cnn(C)c4c(Cl)c23)C(=O)C2CCCCC2)c1 [NSSK00009] | 3300 nM | 4900 nM | 
COC(=O)/C=C/c1cccc(N(Cc2ccc(-c3ccc(N(C)C)cc3)cc2F)C(=O)[C@@H]2C[C@@H]3CC[C@H]2C3)c1 [NSSK00043] | 80.9 nM | 80.7 nM | 
[2H]C(c1ccc(-c2ccc(N(C)C)cc2)cc1)N(C(=O)C1CCCCC1)c1cncc(/C=C/C(=O)OC)c1 (stereo not shown) [NSSK00062] | 926 nM | 926 nM | 
COC(=O)/C=C/c1cc(F)cc(N(Cc2ccc(-c3ccc4c(cnn4C)c3)cc2)C(=O)C2CCCCC2)c1 [NSSK00084] | 3600 nM | 4700 nM | 

Source: patent US20190084939A1, “ANALOGS OF FEXARAMINE AND METHODS OF MAKING AND USING” (Salk Institute for Biological Studies, priority 2014, published 2019)
